# Legend:
# rat FABP1 [1] = target: T1, rat FABP1 (Rattus norvegicus, UniProt P02692); conditions: read-out: Ki, displacement of FABP1-bound cis-parinaroyl-CoA; rat FABP1, mean ± SE n=3, Fig 1A; cited from earlier work
# T1 sequence (P02692 1-127): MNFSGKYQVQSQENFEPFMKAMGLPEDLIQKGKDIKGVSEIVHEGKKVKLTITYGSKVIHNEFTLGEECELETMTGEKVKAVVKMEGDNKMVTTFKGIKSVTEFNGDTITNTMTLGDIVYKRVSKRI
# human WT FABP1 [2] = target: T2, human WT FABP1 (Homo sapiens, UniProt P07148); assay: cis-parinaroyl-CoA fluorescent ligand displacement assay, human FABP1; type: binding; conditions: AEA 0–6μM, Fig 1B
# T2 sequence (P07148 1-127): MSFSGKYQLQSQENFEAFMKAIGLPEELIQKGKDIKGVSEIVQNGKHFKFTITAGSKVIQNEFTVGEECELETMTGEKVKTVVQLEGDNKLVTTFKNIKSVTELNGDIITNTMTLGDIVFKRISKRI
# human WT FABP1 [3] = target: T2, human WT FABP1; assay: DAUDA fluorescent ligand displacement assay, human FABP1; type: binding; conditions: AEA 0–6μM, Fig 1B
# human FABP1 [4] = conditions: read-out: Ki (printed Kids), ANS displacement; cited from earlier work
# L-cells = assay: Cellular uptake of NBD-labeled probes by confocal imaging; type: cell-based, murine; conditions: Fig 3B
# rat FABP1 [5] = target: T1, rat FABP1; conditions: cited from earlier work; for number of ligand molecules bound per FABP1 (binding sites): rat FABP1, fractional saturation curves, Fig 2B; for Kd: read-out: Kd, direct binding of NBD-labeled ligand, rat FABP1, mean ± SE n=3, Fig 2B
# human FABP1 T94A variant = conditions: T94A variant vs WT human FABP1; cited from earlier work
# human FABP1 [6] = conditions: cited from earlier work
smiles,measurement,setting,value
"CCCCC/C=C\C/C=C\C/C=C\C/C=C\CCCC(=O)OC(CO)CO [2-AG, 2-arachidonoylglycerol]",Ki,rat FABP1 [1],205 ± 3 nM
"CCCCC/C=C\C/C=C\C/C=C\C/C=C\CCCC(=O)NCCO [AEA, N-arachidonoylethanolamide]",displacement of human FABP1 bound cis-parinaroyl CoA,human WT FABP1 [2],did not displace
same,Ki,rat FABP1 [1],400 ± 20 nM
same,displacement of human FABP1 bound DAUDA,human WT FABP1 [3],did displace
"CCCCC/C=C\C/C=C\C/C=C\C/C=C\CCCC(=O)O [ARA, arachidonic acid]",Ki,human FABP1 [4],113 ± 6 nM
O=C(CCC/C=C\C/C=C\C/C=C\C/C=C\CCCCCNc1ccc([N+](=O)[O-])c2nonc12)OC(CO)CO [NBD-2-AG],"maximal uptake, fold higher than that of NBD-ARA",L-cells,at least 1.6 fold
same,number of ligand molecules bound per FABP1 (binding sites),rat FABP1 [5],single
same,Kd,rat FABP1 [5],250 ± 50 nM
"O=C(CCC/C=C\C/C=C\C/C=C\C/C=C\CCCCCNc1ccc([N+](=O)[O-])c2nonc12)NCCO [NBD-AEA, 20-[(7-nitro-2-1,3-benzoxadiazol-4-yl)amino] arachidonoylethanolamide]","maximal uptake, fold higher than that of NBD-ARA",L-cells,at least 1.6 fold
same,number of ligand molecules bound per FABP1 (binding sites),rat FABP1 [5],single
same,Kd,rat FABP1 [5],800 ± 200 nM
"O=C(O)CCC/C=C\C/C=C\C/C=C\C/C=C\CCCCCNc1ccc([N+](=O)[O-])c2nonc12 [NBD-ARA, 20-[(7-nitro-2-1,3-benzoxadiazol-4-yl)amino] arachidonic acid]",number of ligand molecules bound per FABP1 (binding sites),rat FABP1 [5],two
same,Kd,rat FABP1 [5],660 ± 60 nM
CC(C)CCC[C@@H](C)[C@H]1CC[C@H]2[C@@H]3CC=C4C[C@@H](O)CC[C@]4(C)[C@H]3CC[C@]12C [cholesterol],fold increase in affinity of human FABP1 by T94A substitution,human FABP1 T94A variant,3 fold
same,fold weaker affinity of human FABP1 compared to rat FABP1,human FABP1 [6]; human vs rat FABP1,3.5 fold
CCCCCCCC/C=C\CCCCCCCC(=O)SCCNC(=O)CCNC(=O)[C@H](O)C(C)(C)COP(=O)(O)OP(=O)(O)OC[C@H]1O[C@@H](n2cnc3c(N)ncnc32)[C@H](O)[C@@H]1OP(=O)(O)O [oleoyl-CoA],fold higher affinity of human FABP1 compared to rat FABP1,human FABP1 [6]; human vs rat FABP1 within the same study,2.2 fold

# From publication PMC5408584 (Lipids, 2016)
